From patent publication US8871715B2, “Use of selenium compounds, especially selenium yeasts for altering cognitive function” (Alltech, Inc., priority 2005, dated 2014)
Marks after values point to notes of the source that are not given here. Values belong to the compound of their own block, whether it stands above or below them.

Assays:
Assay type in all cases: in vivo, mouse (male C57BL/6J)
[1] = system: gene expression in the mouse intestine; assay: Gene expression in mouse intestine (microarray) with dietary selenium vs selenium deficient diet; conditions: diet 1 ppm Se for 100 days vs selenium deficient diet
Text: (§1) Animal Care. Male C57BL/6J mice were housed singly and started on the experimental diets described below immediately after weaning (21 days of age). The mice were maintained in the Shared Aging Rodent Facility at the William S. Middleton Memorial Veterans Administration Medical Center (Madison, Wis.). Temperature and humidity were maintained at constant levels. Room light was controlled to provide 12-hr cycles of light and dark.
(§2) Experimental diets were created by Harlan Teklad (Madison, Wis.). Selenium content of the diets was determined by Covance Inc. (Madison, Wis.). Five (5) animals were included in each of the following treatment groups: a diet deficient in selenium (SD); a diet supplemented with selenomethionine (SM, obtained from Sigma, St. Louis, Mo.) such that the final selenium content of the diet was one (1) part per million; a diet supplemented with sodium selenite (SS, Sigma) such that the final concentration of selenium in this diet was one (1) part per million; or a diet supplemented with the yeast selenium SEL-PLEX (SP, Alltech, Lexington, Ky.), such that the final concentration of selenium in this diet was one (1) part per million. SEL-PLEX. Mice were provided with water and their respective diet ad libitum for 100 days. Diets were stored at the dark at 4° C. and fresh diet was added to feeder twice weekly.
(§3) Tissue sample preparation and microarray analysis. Mice were killed at 100 days of age by cervical dislocation. For intestinal expression studies, the intestine was flushed twice with saline solution and small intestine was measured and divided in three equal segments. A 3-cm region of the middle segment of the small intestine corresponding to the jejunum (˜300 mg of tissue) was cut and rinsed again with physiological saline to completely remove contents, flash frozen in liquid nitrogen and stored at −80° C. For brain (e.g., cerebral cortex) studies, the cerebral cortex was separated from the surrounding brain tissue and was flash frozen in liquid nitrogen and stored at −80° C.
(§4) Total RNA was isolated from using the guanidinium isothiocyanate method of TRIZOL (Life Technologies, Grand Island, N.Y.) and individual samples were used for gene expression profiles. Total RNA was cleaned up by RNeasy Mini kit (Qiagen, Valencia, Calif.). Target RNA was prepared by converting […] total RNA into double-strand cDNA using GeneChip Expression 3′-Amplification Reagents One-Cycle cDNA Synthesis Kit (Affymetrix, Santa Clara, Calif.) with a T7-(dT)24 primer incorporating a T7 RNA polymerase promoter. After cleaning up double-strand cDNA using Genechip Sample Cleanup Module (Affymetrix, Santa Clara, Calif.), biotin-labeled cRNA was synthesized from double-strand cDNA using GeneChip Expression 3′-Amplification Reagents for IVT Labeling (Affymetrix, Santa Clara, Calif.). The biotin-labeled cRNA was cleaned up using Genechip Sample Cleanup Module and was fragmented by heating (35 min at 94° C.).
(§5) Fifteen (15) μg of cRNA fragments were hybridized (16 h at 45° C.) to Mouse Genome 430 2.0 Array (Affymetrix, Santa Clara, Calif.) using GeneChip Hybridization Oven 640. After hybridization, the gene chips were automatically washed and stained with streptavidin-phycoerythrin biotinylated anti-streptavidin using Affymetrix GeneChip Fluidics Station 450. The DNA chips were scanned with Affymetrix GeneChip Scanner 3000 (Affymetrix, Santa Clara, Calif.) to detect the cell signal intensities by laser. All calculations were performed with Affymetrix GeneChip Operating Software (GCOS) version 1.3 after scanning.
(§6) • 1. The spreadsheet containing probe set identifiers and signal intensity values was opened in Microsoft Excel (version 11.1.1 for the Macintosh OS-X operating system) and summary statistics were generated (mean signal intensity for each treatment group, standard error of the mean). Two-tailed t-tests (equal variance) were performed for the following treatment groups: SM vs. SD, SS vs. SD, and SP vs. SD. […]

[2] = Body weight of mice on selenium diets
Text: as §1
Experimental diets were created by Harlan Teklad (Madison, Wis.). Selenium content of the diets was determined by Covance Inc. (Madison, Wis.). […]
Thus, it was an object of the present invention to determine whether compositions and methods of the present invention could alter the expression levels (e.g., mRNA levels) of various genes. One group of genes analyzed were genes classically associated with selenium. As described above, the expression levels of genes were analyzed between mice with and without dietary selenium, or, between mice fed different sources of selenium) (See, e.g., Table 1, below).

[3] = system: brain (cerebral cortex) gene expression; assay: Gene expression in mouse brain (cerebral cortex, microarray) with dietary selenium vs selenium deficient diet; conditions: diet 1 ppm Se for 100 days vs selenium deficient diet
Text: as §1, §2, §3, §4, §5, §6

SMILES: O=[Se](O)O [Sod-sel, sodium selenite]
Cu chaperone for SOD (CCS) expression, fold enhancement [1]: 1.28 fold
Glutathione Peroxidase 1 gene expression, fold change (FC) [1]: 4.1 fold
Glutathione Peroxidase 3 gene expression, fold change (FC) [1]: 3.5 fold
Glutathione S-transferase, alpha 3 (Gsta3) expression, FC [1]: −2.3 fold
Glutathione S-transferase, mu 1 (Gstm1) expression, FC [1]: −2.4 fold
Glutathione S-transferase, mu 2 (Gstm2) expression, FC [1]: −2.1 fold
Glutathione S-transferase, mu 3 (Gstm3) expression, FC [1]: −2.7 fold
Glutathione S-transferase, theta 2 (Gstt2) expression, FC [1]: −1.3 fold
Growth arrest and DNA-damage-inducible 45 gamma (Gadd45g) expression, FC [1]: −2.0 fold
SOD1 expression, fold enhancement [1]: 1.92 fold
SelR (Selenoprotein X1) gene expression, fold upregulation [1]: 1.3 fold
Selenoprotein W (SelW) expression, fold upregulation [1]: 5.1 fold
Thioredoxin Reductase 1 gene expression, fold increase [1]: 1.7 fold
Type 1 iodothyronine deiodinase expression level, fold increase [1]: 2.8 fold
body weights of mice ([2]; diets with 1 ppm Se vs selenium deficient diet, FIG. 1): No significant differences
Gadd45b expression, FC ([3]; brain): −1.39* fold
Gadd45g1p (Growth arrest and DNA-damage inducible 45 gamma interacting protein) expression, FC ([3]; brain): −1.12 fold
Gst mu 7 (Gstm7) expression, FC ([3]; brain): −1.25* fold
Gst pi 1 (Gstp1) expression, FC ([3]; brain): 1.02 fold
Gst zeta 1 (Gstz1) expression, FC ([3]; brain): −1.3 fold
Amyloid beta (A4) precursor protein-binding, family A, member 1 (Apba1) expression, FC ([3]; cerebral cortex): −1.41 fold
Amyloid beta (A4) precursor protein-binding, family B, member 1 (Apbb1 or Fe65) expression, FC ([3]; cerebral cortex): −1.32* fold
Amyloid beta (A4) precursor-like protein (Aplp 1) expression, FC ([3]; cerebral cortex): −1.55* fold
Cathepsin B expression, FC ([3]; cerebral cortex): −1.13* fold
Cathepsin D expression, FC ([3]; cerebral cortex): −1.24* fold
Cathepsin O expression, FC ([3]; cerebral cortex): −1.18 fold
Cathepsin Z expression, FC ([3]; cerebral cortex): −1.30* fold
Complement component 1, q subcomponent binding protein, C1qbp expression, FC ([3]; cerebral cortex): 1.11 fold
Complement component 1, q subcomponent, alpha polypeptide, C1qa expression, FC ([3]; cerebral cortex): −1.18 fold
Complement component 1, q subcomponent, beta polypeptide, expression, FC ([3]; cerebral cortex): −1.35 fold
Complement component 1, q subcomponent, gamma polypeptide, C1qg expression, FC ([3]; cerebral cortex): −1.07 fold
Complement component 1, r subcomponent, C1r expression, FC ([3]; cerebral cortex): −1.29 fold
Junb expression, FC ([3]; cerebral cortex): −1.59 fold
Nicastrin expression, FC ([3]; cerebral cortex): −1.67* fold
Presenilin 1 expression, FC ([3]; cerebral cortex): −1.11 fold

Glyoxalase 1 (Glo1) expression, fold reduction [1]: not significantly affected
type II iodothyronine deiodinase (Dio2) expression, fold down-regulation [1]: no ability to alter
SMILES: C[Se]CC[C@H](N)C(=O)O [SeM, selenomethionine]
Glutathione Peroxidase 1 gene expression, fold change (FC) [1]: 4.9 fold
Glutathione Peroxidase 3 gene expression, fold change (FC) [1]: 4.6 fold
Growth arrest and DNA-damage-inducible 45 gamma (Gadd45g) expression, FC [1]: −1.5 fold
LIM homeobox protein 8 gene (Lhx8) expression, fold upregulation [1]: not significantly different
Neurogenin 3 (Neurog3) expression, fold upregulation [1]: no significant alteration
Prohibitin (Phb) expression, fold upregulation [1]: 1.6 fold
SelR (Selenoprotein X1) gene expression, fold upregulation [1]: not significantly affected
Selenoprotein W (SelW) expression, fold upregulation [1]: not significantly altered
Thioredoxin Reductase 1 gene expression, fold increase [1]: 1.8 fold
expression pattern of GST genes (summary in words) [1]: no alteration
selenoprotein N1 (Sepn1) gene expression, fold increase [1]: not significantly affected
sprouty homolog 2 gene (Spry2) expression, fold reduction [1]: no alteration
transforming growth factor beta 2 (TGF-β2) expression, fold upregulation [1]: not altered
Gadd45g1p expression in intestinal tissue (in words) ([1]; p<0.05): decreased expression
body weights of mice ([2]; mouse, in vivo): No significant differences
CORS-26 expression, fold reduction ([3]; cerebral cortex): no alteration
Complement component 1, q subcomponent, gamma polypeptide, C1qg expression, FC ([3]; cerebral cortex): 1.0 fold
expression of complement component genes (summary in words) ([3]; cerebral cortex): did not provide a statistically significant alteration
